According to PubChem BioAssay (NCI):
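Results reflect a 48-hour exposure of cells in 96-well plates to compound at five concentrations. GI50 marks 50% less growth. TGI marks complete inhibition of growth.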

Columns and labels:
Experiment in all cases: growth of human tumour cells (NCI), 48 h; in the data active means GI50 below about 0.43 µM; inactive means the rest
PC-3 prostate = test system: PC-3 prostate
786-0 renal = test system: 786-0 renal
A498 renal = test system: A498 renal
LOX IMVI melanoma = test system: LOX IMVI melanoma
OVCAR-3 ovarian = test system: OVCAR-3 ovarian
HOP-92 NSCLC = test system: HOP-92 NSCLC
OVCAR-5 ovarian = test system: OVCAR-5 ovarian
SR leukemia = test system: SR leukemia
SNB-75 CNS = test system: SNB-75 CNS
SW-620 colon = test system: SW-620 colon
BT-549 breast = test system: BT-549 breast
SNB-19 CNS = test system: SNB-19 CNS
NCI/ADR-RES ovarian = test system: NCI/ADR-RES ovarian
MDA-MB-231 breast = test system: MDA-MB-231 breast
TK-10 renal = test system: TK-10 renal
SN12C renal = test system: SN12C renal
CAKI-1 renal = test system: CAKI-1 renal
UACC-62 melanoma = test system: UACC-62 melanoma
MOLT-4 leukemia = test system: MOLT-4 leukemia
RPMI-8226 leukemia = test system: RPMI-8226 leukemia
OVCAR-4 ovarian = test system: OVCAR-4 ovarian
ACHN renal = test system: ACHN renal
NCI-H226 lung = test system: NCI-H226 lung
IGROV1 ovarian = test system: IGROV1 ovarian
MCF7 breast = test system: MCF7 breast
NCI-H23 lung = test system: NCI-H23 lung
MDA-MB-435 = test system: MDA-MB-435
KM12 colon = test system: KM12 colon
M14 melanoma = test system: M14 melanoma
SF-539 CNS = test system: SF-539 CNS
UO-31 renal = test system: UO-31 renal
SF-268 CNS = test system: SF-268 CNS
SF-295 CNS = test system: SF-295 CNS
HCT-116 colon = test system: HCT-116 colon
HT29 colon = test system: HT29 colon
U251 CNS = test system: U251 CNS
EKVX NSCLC = test system: EKVX NSCLC
HOP-62 NSCLC = test system: HOP-62 NSCLC
SK-MEL-5 melanoma = test system: SK-MEL-5 melanoma
NCI-H460 lung = test system: NCI-H460 lung
SK-MEL-28 melanoma = test system: SK-MEL-28 melanoma
HCC-2998 colon = test system: HCC-2998 colon
CCRF-CEM leukemia = test system: CCRF-CEM leukemia
UACC-257 melanoma = test system: UACC-257 melanoma
NCI-H522 lung = test system: NCI-H522 lung
HCT-15 colon = test system: HCT-15 colon
DU-145 prostate = test system: DU-145 prostate
MALME-3M melanoma = test system: MALME-3M melanoma
OVCAR-8 ovarian = test system: OVCAR-8 ovarian
RXF 393 renal = test system: RXF 393 renal
HL-60(TB) leukemia = test system: HL-60(TB) leukemia
T-47D breast = test system: T-47D breast
HS 578T breast = test system: HS 578T breast
SK-OV-3 ovarian = test system: SK-OV-3 ovarian
COLO 205 colon = test system: COLO 205 colon
SK-MEL-2 melanoma = test system: SK-MEL-2 melanoma

CC(=O)OC(C)C(OC(C)=O)C(OC(C)=O)C(/C=C/C1CC=CC(=O)O1)OC(C)=O (configuration not stated)
98 µM: TGI (NCI-H23 lung)
80.1 µM: TGI (T-47D breast)
95.5 µM: TGI (OVCAR-3 ovarian)
61 µM: TGI (KM12 colon)
45.3 µM: TGI (A498 renal) | TGI (HCC-2998 colon)
42.1 µM: TGI (UACC-257 melanoma)
46.3 µM: TGI (SW-620 colon)
53.4 µM: TGI (SR leukemia)
36.4 µM: TGI (SN12C renal)
43.5 µM: TGI (SF-539 CNS)
60.3 µM: TGI (NCI-H522 lung)
28.6 µM: TGI (SNB-75 CNS)
48.4 µM: TGI (HCT-116 colon)
89.2 µM: TGI (OVCAR-8 ovarian)
67.8 µM: TGI (UACC-62 melanoma)
75.7 µM: TGI (SF-268 CNS)
53.6 µM: TGI (MDA-MB-231 breast)
33.1 µM: TGI (HS 578T breast)
56.1 µM: TGI (OVCAR-4 ovarian)
inactive: GI50 (PC-3 prostate) 73.2 µM | GI50 (786-0 renal) 37.8 µM | GI50 (A498 renal) 16.9 µM | GI50 (LOX IMVI melanoma) 29.1 µM | GI50 (OVCAR-3 ovarian) 30.8 µM | GI50 (HOP-92 NSCLC) 20.8 µM | GI50 (OVCAR-5 ovarian) 82.8 µM | GI50 (SR leukemia) 19.4 µM | GI50 (SNB-75 CNS) 10.3 µM | GI50 (SW-620 colon) 16.1 µM | GI50 (BT-549 breast) 25.5 µM | GI50 (SNB-19 CNS) 33.5 µM | GI50 (NCI/ADR-RES ovarian) > 100 µM | GI50 (MDA-MB-231 breast) 21.8 µM | GI50 (TK-10 renal) 40.6 µM | GI50 (SN12C renal) 10.5 µM | GI50 (CAKI-1 renal) 43.3 µM | GI50 (UACC-62 melanoma) 25.4 µM | GI50 (MOLT-4 leukemia) 29.2 µM | GI50 (RPMI-8226 leukemia) 26.7 µM | GI50 (OVCAR-4 ovarian) 17.2 µM | GI50 (ACHN renal) 33.7 µM | GI50 (NCI-H226 lung) 42.6 µM | GI50 (IGROV1 ovarian) 32 µM | GI50 (MCF7 breast) 33.6 µM | GI50 (NCI-H23 lung) 31.3 µM | GI50 (MDA-MB-435) 37.6 µM | GI50 (KM12 colon) 22.8 µM | GI50 (M14 melanoma) 29.5 µM | GI50 (SF-539 CNS) 21.5 µM | GI50 (UO-31 renal) 42.8 µM | GI50 (SF-268 CNS) 27.5 µM | GI50 (SF-295 CNS) 51 µM | GI50 (HCT-116 colon) 20.4 µM | GI50 (HT29 colon) 15.8 µM | GI50 (U251 CNS) 30.7 µM | GI50 (EKVX NSCLC) 39.6 µM | GI50 (HOP-62 NSCLC) 37.8 µM | GI50 (SK-MEL-5 melanoma) 26.3 µM | GI50 (NCI-H460 lung) 32.7 µM | GI50 (SK-MEL-28 melanoma) 16.8 µM | GI50 (HCC-2998 colon) 22.9 µM | GI50 (CCRF-CEM leukemia) 30.3 µM | GI50 (UACC-257 melanoma) 19.5 µM | GI50 (NCI-H522 lung) 22.9 µM | GI50 (HCT-15 colon) 32.2 µM | GI50 (DU-145 prostate) 18.8 µM | GI50 (MALME-3M melanoma) 36.5 µM | GI50 (OVCAR-8 ovarian) 26.8 µM | GI50 (RXF 393 renal) 21.3 µM | GI50 (HL-60(TB) leukemia) 20.4 µM | GI50 (T-47D breast) 27.3 µM | GI50 (HS 578T breast) 12.4 µM | GI50 (SK-OV-3 ovarian) 78 µM | GI50 (COLO 205 colon) 22 µM | GI50 (SK-MEL-2 melanoma) 35.9 µM
73.4 µM: TGI (RXF 393 renal)
64.6 µM: TGI (HOP-92 NSCLC) | TGI (COLO 205 colon)
83.5 µM: TGI (RPMI-8226 leukemia)
43.1 µM: TGI (DU-145 prostate)
47.7 µM: TGI (HT29 colon)
70.6 µM: TGI (BT-549 breast)
46.6 µM: TGI (SK-MEL-28 melanoma)
43.3 µM: TGI (HL-60(TB) leukemia)
97.5 µM: TGI (MOLT-4 leukemia)
> 100 µM: TGI (PC-3 prostate) | TGI (786-0 renal) | TGI (LOX IMVI melanoma) | TGI (OVCAR-5 ovarian) | TGI (SNB-19 CNS) | TGI (NCI/ADR-RES ovarian) | TGI (TK-10 renal) | TGI (CAKI-1 renal) | TGI (ACHN renal) | TGI (NCI-H226 lung) | TGI (IGROV1 ovarian) | TGI (MCF7 breast) | TGI (MDA-MB-435) | TGI (M14 melanoma) | TGI (UO-31 renal) | TGI (SF-295 CNS) | TGI (U251 CNS) | TGI (EKVX NSCLC) | TGI (HOP-62 NSCLC) | TGI (SK-MEL-5 melanoma) | TGI (NCI-H460 lung) | TGI (CCRF-CEM leukemia) | TGI (HCT-15 colon) | TGI (MALME-3M melanoma) | TGI (SK-OV-3 ovarian) | TGI (SK-MEL-2 melanoma)
